This is an account of results in patent publication US6344454B1, “Nonsteroidal gestagens” (Schering Aktiengesellschaft, priority 1997, dated 2002).

One data set addresses T1, gestagen receptor (Oryctolagus cuniculus, UniProt P06186).
T1 construct: using cytosol from rabbit uterus homogenate; from tissue; host or cells: rabbit uterus cytosol
T1 sequence (P06186 1-930): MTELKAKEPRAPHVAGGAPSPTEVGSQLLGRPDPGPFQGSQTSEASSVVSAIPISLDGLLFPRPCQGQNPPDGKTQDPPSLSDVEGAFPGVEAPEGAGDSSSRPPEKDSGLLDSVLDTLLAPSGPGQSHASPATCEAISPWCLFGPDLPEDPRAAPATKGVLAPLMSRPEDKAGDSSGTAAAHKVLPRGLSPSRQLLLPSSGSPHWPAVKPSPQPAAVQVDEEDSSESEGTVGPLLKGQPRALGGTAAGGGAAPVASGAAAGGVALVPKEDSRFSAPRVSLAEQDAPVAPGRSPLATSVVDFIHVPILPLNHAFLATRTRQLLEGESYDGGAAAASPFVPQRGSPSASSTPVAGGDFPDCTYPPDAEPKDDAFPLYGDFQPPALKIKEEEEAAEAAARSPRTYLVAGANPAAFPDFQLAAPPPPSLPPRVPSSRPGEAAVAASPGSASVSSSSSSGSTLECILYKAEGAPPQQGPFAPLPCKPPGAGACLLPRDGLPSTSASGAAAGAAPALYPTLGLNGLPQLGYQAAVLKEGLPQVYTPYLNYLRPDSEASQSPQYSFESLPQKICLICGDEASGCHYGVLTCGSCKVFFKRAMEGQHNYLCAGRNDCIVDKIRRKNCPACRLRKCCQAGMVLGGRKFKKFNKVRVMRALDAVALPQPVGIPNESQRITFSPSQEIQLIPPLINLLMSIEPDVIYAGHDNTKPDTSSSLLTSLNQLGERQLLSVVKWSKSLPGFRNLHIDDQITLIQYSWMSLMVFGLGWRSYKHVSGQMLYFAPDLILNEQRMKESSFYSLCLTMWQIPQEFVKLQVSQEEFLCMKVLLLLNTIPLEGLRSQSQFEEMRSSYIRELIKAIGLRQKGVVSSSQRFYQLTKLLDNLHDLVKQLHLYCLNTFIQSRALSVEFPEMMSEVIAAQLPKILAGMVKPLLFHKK
Briefly: gestagen receptor bonding test (cytosol from rabbit uterus homogenate, 3H-progesterone as reference substance). The format is binding. An excerpt: In the gestagen receptor bonding test on the gestagenic action using cytosol from rabbit uterus homogenate and from ^3H-progesterone as a reference substance, the new compounds show a strong to very strong affinity to the gestagen receptor (see Table 1).

Each structure is given as a SMILES string.

`CC(C)(CC(O)(CNc1ccc2c(c1)COC2=O)C(F)(F)F)c1ccccc1` (racemic) [Example 65] came in with a melting point of 154 °C. The “Competition Factor (Reference Substance 3H-Progesterone)” value (from here on “Competition Factor”) on gestagen receptor was found to be 0.17.
`COc1cccc(C(C)(C)CC(O)(C(=O)Nc2ccc3c(c2)COC3=O)C(F)(F)F)c1` (stereo not shown) [Example 4, 5-[2-Hydroxy-4-(3-methoxyphenyl)-4-methyl-2-trifluoromethyl-valeroylamino]-phthalide] showed a melting point of 129 to 130 °C.
With `CC(CC(O)(C(=O)Nc1ccc([N+](=O)[O-])c(C(F)(F)F)c1)C(F)(F)F)c1ccccc1` (stereo not shown) [(*) (Melting point 161° C.), reference compound], at gestagen receptor, the “Competition Factor” value came to 2.0.
Molecule `Cc1noc(=O)c2ccc(NC(=O)C(O)(CC(C)(C)c3ccccc3)C(F)(F)F)cc12` (stereo not shown) [Example 106] showed a melting point of 123 °C. The “Competition Factor” value at gestagen receptor was determined as 0.55.
`CC(C)(CC(O)(C(=O)Nc1ccc2c(c1)COC2=O)C(F)(F)F)c1cccs1` (single isomer, unassigned; (+)) [Example 103 (+)-2-thienyl, (+)-5-[2-hydroxy-4-methyl-4-(2-thienyl)-2-trifluoromethyl-valeroylamino]-phthalide] yielded a melting point of 166 °C.
As for `CC(CC(O)(C(=O)Nc1ccc([N+](=O)[O-])c(C(F)(F)F)c1)C(F)(F)F)c1ccccc1` (stereo not shown) [(*) (Melting point 141-142° C.), reference compound], the “Competition Factor” value at gestagen receptor is on record as 17.
`CC(C)Oc1ccc(F)cc1C(C)(C)CC(O)(C(=O)Nc1ccc2c(c1)COC2=O)C(F)(F)F` (racemic) [Example 155] gave a melting point of 153 to 154 °C.
`Cc1noc(=O)c2ccc(NC(=O)C(O)(CC(C)(C)c3ccccc3)C(F)(F)F)cc12` (stereo not shown) [Example 42, 6-(2-Hydroxy-4-methyl-4-phenyl-2-trifluoromethyl-valeroyl-amino)-4-methyl-2,3-benzoxazin-1-one] yielded a melting point of 172 to 173 °C.

What is called melting point is the temperature of the solid-liquid transition.
